Laboratory results reported in PMC7279487, “Dual Target Ligands with 4-tert-Butylphenoxy Scaffold as Histamine H3 Receptor Antagonists and Monoamine Oxidase B Inhibitors” (International Journal of Molecular Sciences, 2020).
Where a name gives a salt, the structure may show the parent alone.

Legend:
[1] = target: T1, human histamine H3 receptor (hH3R) (Homo sapiens, UniProt Q9Y5N1); experiment: radioligand displacement binding assay, [3H]Nα-methylhistamine, HEK293 cells stably expressing hH3R; details: HEK293 cells stably expressing human H3R, mean (95% CI)
T1 construct: expressed in transfected cells
T1 sequence (Q9Y5N1 whole entry): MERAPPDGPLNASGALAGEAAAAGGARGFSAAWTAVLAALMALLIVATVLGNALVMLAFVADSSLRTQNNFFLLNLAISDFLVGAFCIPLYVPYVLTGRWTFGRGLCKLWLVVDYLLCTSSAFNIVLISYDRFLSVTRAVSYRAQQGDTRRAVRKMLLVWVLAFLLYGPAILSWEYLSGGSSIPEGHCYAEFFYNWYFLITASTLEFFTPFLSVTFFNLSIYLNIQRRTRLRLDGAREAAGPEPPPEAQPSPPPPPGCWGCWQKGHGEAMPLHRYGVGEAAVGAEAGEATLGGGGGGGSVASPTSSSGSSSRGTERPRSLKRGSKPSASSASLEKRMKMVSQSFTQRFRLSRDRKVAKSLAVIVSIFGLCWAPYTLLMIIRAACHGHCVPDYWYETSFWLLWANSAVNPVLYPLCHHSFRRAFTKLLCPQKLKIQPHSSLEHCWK
Method: [^3H]N^α-methylhistamine was used as a radioligand.
The radioligand displacement binding assay was carried out in HEK-293 cells stably expressing the recombinant hH3R as described by Kottke et al. with slight modifications. […] Obtained data from at least three experiments (in at least duplicates) were analyzed with GraphPad Prism 6.1 (San Diego, CA, USA) using nonlinear regression (one-site competition on logarithmic scale), and Ki values were transformed from IC50 according to Cheng-Prusoff. Statistical analysis was performed on −log Ki values.

hMAO B = target: T2, hMAO B (Homo sapiens, UniProt P27338); experiment: hMAO B inhibition, fluorometric Amplex Red MAO assay; assay type: biochemical; details: percent of inhibition at 1 μM; mean of two independent experiments; read-out: MAO B (%Inh.)
T2 construct: purchased Sigma Aldrich M7441
T2 sequence (P27338 1-520): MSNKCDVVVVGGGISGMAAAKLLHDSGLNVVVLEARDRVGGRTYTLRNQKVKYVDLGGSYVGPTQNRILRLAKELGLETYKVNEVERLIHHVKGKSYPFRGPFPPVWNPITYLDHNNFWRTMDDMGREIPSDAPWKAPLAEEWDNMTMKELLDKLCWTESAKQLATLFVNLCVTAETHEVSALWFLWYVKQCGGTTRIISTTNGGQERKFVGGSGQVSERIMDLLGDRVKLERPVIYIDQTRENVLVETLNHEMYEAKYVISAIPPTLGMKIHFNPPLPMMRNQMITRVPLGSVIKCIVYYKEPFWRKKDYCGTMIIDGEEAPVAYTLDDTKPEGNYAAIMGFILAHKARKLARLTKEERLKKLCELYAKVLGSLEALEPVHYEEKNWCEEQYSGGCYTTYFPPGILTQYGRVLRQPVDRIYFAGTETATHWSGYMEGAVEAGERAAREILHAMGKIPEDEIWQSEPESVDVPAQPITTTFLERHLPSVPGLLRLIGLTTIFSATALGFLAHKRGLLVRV

[2] = system: haloperidol-induced catalepsy; experiment: haloperidol-induced catalepsy, bar test; assay type: in vivo, Wistar rats; details: mean ± SEM (n = 6)
Method: (§1) Haloperidol (dopamine D2 antagonist)-induced catalepsy in rodents is a popular model for screening of antiparkinsonian activity of compounds [21]. Caused symptoms in animals are similar to the inability of PD patients to initiate movements. […] The reversal of catalepsy was tested for 6 min (3 times in 3 min intervals) after 1 h of haloperidol administration. As the reference compound was used MSX-3, the adenosine A2A receptor antagonist with confirmed ability to reverse catalepsy mediated by D1 and D2 receptor antagonists.
Haloperidol-induced catalepsy was not reduced by DL-76 administrated at a dose of 25 mg/kg body weight (Table 3). After administration of DL-76 at a dose of 50 mg/kg body weight, low antiparkinsonian activity in the bar test was observed. […] This effect was weaker than the anti-Parkisonian activity of MSX-3.
(§2) The experiments were carried out on male rats Wistar (180–220 g). Animals were housed in plastic cages in room at a constant temperature of 20 ± 2 °C with natural light–dark cycles. The animals had free access to standard pellet diet and water and were used after a minimum of 3 days of acclimatization to the housing conditions. Control and experimental groups consisted of 6 animals each. All experimental procedures were performed according to the European Union Directive of 22 September 2010 (2010/63/EU) and Polish legislation concerning animal care and use and was approved by the Local Ethics Committee for Experiments on Animals in Kraków, Poland (Resolution No. 70/2014, approval date: 20 May 2014). The examined compound was administered as the suspension in 0.5% methylcellulose in constant volume of 10 mL/kg.
(§3) Antiparkinsonian activity in catalepsy tests was performed as described in [28]. Haloperidol was administered s.c. at a dose of 0.63 mg/kg, which in 100% of control animals caused catalepsy. Tested compounds were administered i.p. at the doses 50 and 25 mg/kg body weight, 5 min after haloperidol injection. After 60 min from the injection of haloperidol, to assess the occurrence of catalepsy, the animals were placed in a forced position and the time they remained in this position was measured. Two tests were performed to determine the antiparkinsonian activity: crossed leg position test and bar test. In the first test, the animals were put on the hind paws behind the front (forced position); in the second, the animals were supported on a wooden block (the front paws were placed on a block suspended 10 cm above the ground). Then, the time that the animals remain is measured in a forced position (time was measured to a maximum of 60 s). Observation was carried out 3 times in 3-min intervals. The shortening of the time of catalepsy to the control group was adopted for the antiparkinsonian activity.

[3] = system: haloperidol-induced catalepsy; experiment: haloperidol-induced catalepsy, crossed-leg position test; assay type: in vivo, Wistar rats; details: mean ± SEM (n = 6)
Method: as §1, §2, §3

Ki [1] [nM]	inhibition at 1 µM (hMAO B) [%]	melting point [°C]	SMILES	also measured
3440	38	140 to 142	CC1(C)CCCN(CCCCOc2ccc(C(C)(C)C)cc2)C1.O=C(O)C(=O)O [Compound 17, 1-(4-(4-tert-Butylphenoxy)butyl)-3,3-dimethylpiperidine hydrogen oxalate]	
2080	34	143 to 145	CC1CC(C)CN(CCCCCCOc2ccc(C(C)(C)C)cc2)C1.O=C(O)C(=O)O (stereo not drawn) [Compound 23, 1-(6-(4-tert-Butylphenoxy)hexyl)-3,5-dimethylpiperidine hydrogen oxalate]	
531	39	167 to 170	CC1CCN(CCCCCOc2ccc(C(C)(C)C)cc2)CC1.O=C(O)C(=O)O [Compound 26, 1-(5-(4-tert-Butylphenoxy)pentyl)-4-methylpiperidine hydrogen oxalate]	
	23	130 to 132	CC(C)(C)c1ccc(OCCCCCCN2CCCCCC2)cc1.O=C(O)C(=O)O [Compound 31, 1-(6-(4-tert-Butylphenoxy)hexyl)-azepane hydrogen oxalate]	
114	33	179 to 181	CC1CCCN(CCCCCOc2ccc(C(C)(C)C)cc2)C1.O=C(O)C(=O)O (stereo not drawn) [Compound 14, 1-(5-(4-tert-Butylphenoxy)pentyl)-3-methylpiperidine hydrogen oxalate]	
			C#CCn1c(=O)c2c(nc(/C=C/c3cccc(OC)c3)n2C)n(CCCOP(=O)(O)O)c1=O.[Na].[Na] [MSX-3, (E)-phosphoric acid mono-[3-[8-[2-(3-methoxyphenyl)vinyl]-7-methyl-2,6-dioxo-1-prop-2-ynyl-1,2,6,7-tetrahydro-purin-3-yl]propyl] ester disodium salt, reference compound]	Times of Observation of Catalepsy (s), 0 min ([2]; 25 mg/kg i.p.): 0 ± 0 s; Times of Observation of Catalepsy (s), 3 min ([2]; 25 mg/kg i.p.): 0 ± 0 s; Times of Observation of Catalepsy (s), 6 min ([2]; 25 mg/kg i.p.): 0 ± 0 s; Times of Observation of Catalepsy (s), 0 min ([2]; 50 mg/kg i.p.): 0 ± 0 s; Times of Observation of Catalepsy (s), 3 min ([2]; 50 mg/kg i.p.): 0 ± 0 s; Times of Observation of Catalepsy (s), 6 min ([2]; 50 mg/kg i.p.): 0 ± 0 s; Times of Observation of Catalepsy (s), 0 min ([3]; 25 mg/kg): 0 ± 0 s; Times of Observation of Catalepsy (s), 3 min ([3]; 25 mg/kg): 0 ± 0 s; Times of Observation of Catalepsy (s), 6 min ([3]; 25 mg/kg): 0 ± 0 s; Times of Observation of Catalepsy (s), 0 min ([3]; 50 mg/kg): 0 ± 0 s; Times of Observation of Catalepsy (s), 3 min ([3]; 50 mg/kg): 0 ± 0 s; Times of Observation of Catalepsy (s), 6 min ([3]; 50 mg/kg): 0 ± 0 s
400	33		CC1CCN(CCCCOc2ccc(C(C)(C)C)cc2)CC1 [Compound 25, 1-(4-(4-tert-Butylphenoxy)butyl)-4-methylpiperidine hydrogen oxalate]	
2240	41	175 to 178	CC1CC(C)CN(CCCCCOc2ccc(C(C)(C)C)cc2)C1.O=C(O)C(=O)O (stereo not drawn) [Compound 22, 1-(5-(4-tert-Butylphenoxy)pentyl)-3,5-dimethylpiperidine hydrogen oxalate]	
225	13	156 to 158	CC(C)(C)c1ccc(OCCCCCCN2CCCCC2)cc1.O=C(O)C(=O)O [Compound 8, 1-(6-(4-tert-Butylphenoxy)hexyl)piperidine hydrogen oxalate]	
316	37	158 to 160	CC1CCN(CCCOc2ccc(C(C)(C)C)cc2)CC1.O=C(O)C(=O)O [Compound 24, 1-(3-(4-tert-Butylphenoxy)propyl)-4-methylpiperidine hydrogen oxalate]	
351	13	140 to 142	CC1CCCN(CCCCCCOc2ccc(C(C)(C)C)cc2)C1.O=C(O)C(=O)O (stereo not drawn) [Compound 15, 1-(6-(4-tert-Butylphenoxy)hexyl)-3-methylpiperidine hydrogen oxalate]	
324	18	151 to 153	CC(C)(C)c1ccc(OCCCCCN2CCCCCC2)cc1.O=C(O)C(=O)O [Compound 30, 1-(5-(4-tert-Butylphenoxy)pentyl)-azepane hydrogen oxalate]	
102		148 to 150	CC1CCCN(CCCCOc2ccc(C(C)(C)C)cc2)C1.O=C(O)C(=O)O (stereo not drawn) [Compound 13, 1-(4-(4-tert-Butylphenoxy)butyl)-3-methylpiperidine hydrogen oxalate]	
1350	10	136 to 139	CC1CCN(CCCCCCOc2ccc(C(C)(C)C)cc2)CC1.O=C(O)C(=O)O [Compound 27, 1-(6-(4-tert-Butylphenoxy)hexyl)-4-methylpiperidine hydrogen oxalate]	
341	37	143 to 145	CC1CC(C)CN(CCCOc2ccc(C(C)(C)C)cc2)C1.O=C(O)C(=O)O (stereo not drawn) [Compound 20, 1-(3-(4-tert-Butylphenoxy)propyl)-3,5-dimethylpiperidine hydrogen oxalate]	
1380	35	170 to 172	CC1CC(C)CN(CCCCOc2ccc(C(C)(C)C)cc2)C1.O=C(O)C(=O)O (stereo not drawn) [Compound 21, 1-(4-(4-tert-Butylphenoxy)butyl)-3,5-dimethylpiperidine hydrogen oxalate]	
252	28	170 to 172	CC(C)(C)c1ccc(OCCCCCN2CCCCC2)cc1.O=C(O)C(=O)O [Compound 7, 1-(5-(4-tert-Butylphenoxy)pentyl)piperidine hydrogen oxalate]	
1560	36	96 to 99	CC1CCCCN1CCCCCOc1ccc(C(C)(C)C)cc1.O=C(O)C(=O)O (stereo not drawn) [Compound 11, 1-(5-(4-tert-Butylphenoxy)pentyl)-2-methylpiperidine hydrogen oxalate]	
